Assay results as given in patent US9326978B2, “A3 adenosine receptor allosteric modulators” (The United States of America, Represented by the Secretary, …, priority 2006, dated 2016).

How the values were obtained:
[1] = target: T1, human A3ARs (Homo sapiens (Human), UniProt P0DMS8); experiment: Dissociation kinetics of [125I]I-AB-MECA from human A3ARs; type: binding; conditions: 0.5 h, % decrease of dissociation at 30 min, residual binding of [125I]AB-MECA after 30 min = 100%, Table 2, read-out: hA3AR Ag. Dissociation at 10 μM
T1 sequence (P0DMS8 whole entry): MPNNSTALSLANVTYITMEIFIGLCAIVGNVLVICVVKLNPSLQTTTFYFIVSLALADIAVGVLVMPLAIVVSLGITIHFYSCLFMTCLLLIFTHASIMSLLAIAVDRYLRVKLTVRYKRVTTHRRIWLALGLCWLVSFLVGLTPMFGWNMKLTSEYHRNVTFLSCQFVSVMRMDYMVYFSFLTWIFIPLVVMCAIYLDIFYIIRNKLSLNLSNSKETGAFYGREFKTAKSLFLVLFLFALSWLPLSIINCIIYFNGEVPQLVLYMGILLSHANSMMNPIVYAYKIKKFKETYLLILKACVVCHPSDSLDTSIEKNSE
Method: The dissociation of [^125I]I-AB-MECA was measured as follows. Membranes (20 μg) were preincubated at 25° C. with 0.5 nM [^125I]I-AB-MECA, in a total volume of 100 μl of Tris-HCl buffer (50 mM, pH 8.0) containing 10 mM MgCl2, and 1 mM EDTA for 60 min. The dissociation was then initiated by the addition of 3 μM Cl-IB-MECA with or without allosteric modulators. The time course of dissociation of total binding was measured by rapid filtration at appropriate time intervals. Nonspecific binding was measured after 60-min incubation in the presence of 3 μM Cl-IB-MECA. Further assay was as described above.

[2] = target: T1, human A3ARs; experiment: Cyclic AMP accumulation assay, efficacy at hA3AR; type: cell-based; conditions: compared to maximal effect by 2-Cl-IB-MECA alone (control = 100%)
Method: Intracellular cyclic AMP levels were measured with a competitive protein binding method (Nordstedt and Fredholm, 1990). CHO cells that expressed recombinant human A3ARs were harvested by trypsinization. After centrifugation and resuspension in medium, cells were plated in 24-well plates in 0.5 ml medium. After 24 hr, the medium was removed and cells were washed three times with 1 ml DMEM, containing 50 mM HEPES, pH 7.4. Cells were then treated with agonists and/or test compounds in the presence of rolipram (10 μM) and adenosine deaminase (3 units/ml). After 45 min forskolin (10 μM) was added to the medium, and incubation was continued an additional 15 min. The reaction was terminated by removing the supernatant, and cells were lysed upon the addition of 200 μL of 0.1 M ice-cold HCl. The cell lysate was resuspended and stored at −20° C. For determination of cyclic AMP production, protein kinase A (PKA) was incubated with [^3H]cyclic AMP (2 nM) in K2HPO4/EDTA buffer (K2HPO4, 150 mM; EDTA, 10 mM), 20 μL of the cell lysate, and 30 μL 0.1 M HCl or 50 μL of cyclic AMP solution (0-16 pmol/200 μL for standard curve). Bound radioactivity was separated by rapid filtration through Whatman GF/C filters and washed once with cold buffer. Bound radioactivity was measured by liquid scintillation spectrometry.

[3] = target: human A1AR (Homo sapiens (Human), UniProt P30542); experiment: Binding assay to the human A1AR ([3H]R-PIA); conditions: [3H]R-PIA (2.0 nM), CHO cells, Table 2; for Ki: read-out: Ki(hA1AR); for inhibition at 10 µM: 1 h, read-out: hA1AR % displ. at 10 μM
human A1AR, sequence (P30542 whole entry): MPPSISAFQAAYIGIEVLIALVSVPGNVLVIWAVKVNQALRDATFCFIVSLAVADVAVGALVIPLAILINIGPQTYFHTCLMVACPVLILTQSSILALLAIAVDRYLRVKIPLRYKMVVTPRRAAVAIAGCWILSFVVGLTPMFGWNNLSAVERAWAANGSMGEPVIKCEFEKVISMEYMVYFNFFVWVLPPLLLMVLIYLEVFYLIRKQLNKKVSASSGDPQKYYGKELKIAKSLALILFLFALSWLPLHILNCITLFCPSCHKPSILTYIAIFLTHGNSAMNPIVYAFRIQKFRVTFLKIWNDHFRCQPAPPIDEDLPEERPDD
Method: (§1) CHO (Chinese hamster ovary) cells expressing the recombinant human ARs (HEK-293 cells were used for the human A2AAR) were cultured in DMEM and F12 (1:1) supplemented with 10% fetal bovine serum, 100 units/ml penicillin, […] streptomycin and 2 μmol/ml glutamine. Cells were harvested by trypsinization. After homogenization and suspension, cells were centrifuged at 500 g for 10 min, and the pellet was re-suspended in 50 mM Tris.HCl buffer (pH 7.4) containing 10 mM MgCl2. The suspension was homogenized with an electric homogenizer for 10 sec, and was then re-centrifuged at 20,000 g for 20 min at 4° C. The resultant pellets were resuspended in buffer in the presence of 3 Units/mL adenosine deaminase, and the suspension was stored at −80° C. until the binding experiments. The protein concentration was measured using the Bradford assay.
(§2) For binding to the human A1AR, [^3H]R-PIA (2 nM) was incubated with membranes (40 μg/tube) from CHO cells stably expressing the human A1AR at 25° C. for 60 min in 50 mM Tris.HCl buffer (pH 7.4; MgCl2, 10 mM) in a total assay volume of 200 μL. Nonspecific binding was determined using 10 μM of N^6-cyclopentyladenosine. For human A2A AR binding, membranes (20 μg/tube) from HEK-293 cells stably expressing the human A2A AR were incubated with 15 nM [^3H]CGS21680 at 25° C. for 60 min in 200 μL of 50 mM Tris.HCl, pH 7.4, containing 10 mM MgCl2. N-5′-ethyluronamidoadenosine (10 μM) was used to define nonspecific binding. Reaction was terminated by filtration with GF/B filters.

[4] = target: human A3AR (Homo sapiens (Human), UniProt P0DMS8); experiment: Competitive binding assay to the human A3AR ([125I]I-AB-MECA); conditions: for inhibition at 10 µM: 1 h, read-out: hA3AR % displ. at 10 μM; for inhibition at 10 µM / Ki: [125I]I-AB-MECA (0.5 nM), CHO cells, Table 2; for Ki: read-out: Ki(hA3AR); for affinity to orthosteric versus allosteric binding sites (selective affinity): orthosteric sites of A1, A2A, A2B, A3 receptors vs allosteric site of A3 adenosine receptor
human A3AR, sequence (P0DMS8 whole entry): as the sequence (P0DMS8 whole entry) above
Method: as §1
Each tube in the competitive binding assay contained 100 μl membrane suspension (20 μg protein), 50 μl [^125I]-AB-MECA (0.5 nM), and 50 μl of increasing concentrations of the test ligands in Tris.HCl buffer (50 mM, pH 8.0) containing 10 mM MgCl2, 1 mM EDTA. Nonspecific binding was determined using 10 μM of 5′-N-ethylcarboxamidoadenosine in the buffer. The mixtures were incubated at 25° C. for 60 min. Binding reactions were terminated by filtration through Whatman GF/B filters under reduced pressure using a MT-24 cell harvester (Brandell, Gaithersburgh, Md., USA). Filters were washed three times with 9 mL ice-cold buffer. Radioactivity was determined in a Beckman 5500B γ-counter.

[5] = target: human A2A AR (Homo sapiens (Human), UniProt P29274); experiment: Binding assay to the human A2A AR ([3H]CGS21680); conditions: [3H]CGS 21680 (15 nM), HEK293 cells, Table 2; for Ki: read-out: Ki(hA2AAR)
human A2A AR, sequence (P29274 whole entry): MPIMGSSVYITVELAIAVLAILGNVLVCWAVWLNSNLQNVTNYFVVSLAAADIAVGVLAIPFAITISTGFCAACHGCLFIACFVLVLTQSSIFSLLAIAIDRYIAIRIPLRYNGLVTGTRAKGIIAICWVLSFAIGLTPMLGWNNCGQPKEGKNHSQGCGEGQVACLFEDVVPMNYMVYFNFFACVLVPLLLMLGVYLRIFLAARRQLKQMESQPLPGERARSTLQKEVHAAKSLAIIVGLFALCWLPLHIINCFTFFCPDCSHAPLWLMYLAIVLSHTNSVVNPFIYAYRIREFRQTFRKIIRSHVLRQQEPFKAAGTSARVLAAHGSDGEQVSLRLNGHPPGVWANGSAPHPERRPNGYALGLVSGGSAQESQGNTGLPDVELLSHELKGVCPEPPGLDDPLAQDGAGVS
Method: as §1, §2

[6] = target: hA2BAR (Homo sapiens (Human), UniProt P29275); experiment: Effect on NECA-induced cyclic AMP accumulation at A2B receptor; further: NECA (150 nM)-induced cyclic AMP accumulation; type: cell-based; conditions: read-out: hA2BAR % inhib. at 10 μM
hA2BAR, sequence (P29275 whole entry): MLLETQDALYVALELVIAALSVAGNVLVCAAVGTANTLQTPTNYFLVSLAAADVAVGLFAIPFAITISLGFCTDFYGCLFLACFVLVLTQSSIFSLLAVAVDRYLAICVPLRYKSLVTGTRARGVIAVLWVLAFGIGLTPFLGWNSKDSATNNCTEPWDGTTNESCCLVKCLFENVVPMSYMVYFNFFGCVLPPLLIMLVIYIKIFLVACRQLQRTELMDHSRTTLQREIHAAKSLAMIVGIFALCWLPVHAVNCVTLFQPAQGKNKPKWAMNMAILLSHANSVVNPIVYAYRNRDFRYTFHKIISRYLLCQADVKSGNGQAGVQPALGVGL

Compound	activity at 10 µM [1] [%]	% Increase of efficacy at hA3AR at 10 μM [2] [%]	Ki [3] [µM]	inhibition at 10 µM [4] [%]	Ki [4] [µM]	Ki [5] [µM]	inhibition at 10 µM [6] [%]	melting point [°C]	hA2AAR % displ. at 10 μM [5]	inhibition at 10 µM [3] [%]	affinity to orthosteric versus allosteric binding sites (selective affinity) [4]
c1ccc(Nc2nc3ccccc3c3[nH]c(C4CCCC4)nc23)cc1 [Compound 30, N-Phenyl-2-cyclopentyl-1H-imidazo[4,5-c]quinolin-4-amine, reference compound]	174 ± 5	138 ± 8	3.42 ± 0.23	90	0.786 ± 0.067	3.15 ± 0.21	-6.8	–	–	–	non-specific affinity
Cc1ccc(Nc2nc3ccccc3c3[nH]c(C4CCCC4)nc23)cc1 [Compound 31, N-(4-Methyl-phenyl)-2-cyclopentyl-1H-imidazo[4,5-c]quinolin-4-amine]	153 ± 4	128 ± 4	–	87	1.19 ± 0.107	5.22 ± 0.32	-4.1	125 to 126	–	–	–
COc1ccc(Nc2nc3ccccc3c3[nH]c(C4CCCC4)nc23)cc1 [Compound 32, N-(4-Methoxy-phenyl)-2-cyclopentyl-1H-imidazo[4,5-c]quinolin-4-amine]	166 ± 11	132 ± 4	4.17 ± 0.73	92	0.41 ± 0.064	> 10	7.3	106 to 107	(16%)	–	–
Clc1ccc(Nc2nc3ccccc3c3[nH]c(C4CCCC4)nc23)cc1Cl [Compound 33, N-(3,4-Dichloro-phenyl)-2-cyclopentyl-1H-imidazo[4,5-c]quinolin-4-amine]	144 ± 9	141 ± 5	> 10	67	4.69 ± 0.97	> 10	-6.7	114 to 115	(0%)	15	selective affinity
Clc1ccc(Nc2nc3ccccc3c3[nH]c(C4CCCC4)nc23)cc1 [Compound 34, N-(4-Chloro-phenyl)-2-cyclopentyl-1H-imidazo[4,5-c]quinolin-4-amine]	159 ± 5	136 ± 3	> 10	82	1.61 ± 0.55	> 10	-10.2	189 to 190	(17%)	22	–
Clc1ccc(Nc2nc3ccccc3c3[nH]c(C4CCC4)nc23)cc1Cl [Compound 44, N-(3,4-Dichloro-phenyl)-2-cyclobutyl-1H-imidazo[4,5-c]quinolin-4-amine]	–	126 ± 3	–	52	–	–	-5.5	131 to 134	0.4%	-5	–

Continued, in another order:

activity at 10 µM [1] [%]	% Increase of efficacy at hA3AR at 10 μM [2] [%]	Ki [3] [µM]	inhibition at 10 µM [4] [%]	Ki [4] [µM]	Ki [5] [µM]	inhibition at 10 µM [6] [%]	melting point [°C]	hA2AAR % displ. at 10 μM [5]	inhibition at 10 µM [3] [%]	Compound	affinity to orthosteric versus allosteric binding sites (selective affinity) [4]
129 ± 15	118 ± 4	–	56	–	–	-4.1	228 to 230	49%	51	OCc1cccc(Nc2nc3ccccc3c3[nH]c(C4CCCC4)nc23)c1 [Compound 35, N-(3-Methanol-phenyl)-2-cyclopentyl-1H-imidazo[4,5-c]quinolin-4-amine]	–
108 ± 4	111 ± 5	–	69	–	–	-10.7	142 to 145	8%	21	c1ccc2c(c1)nc(Nc1ccc3c(c1)CCC3)c1nc(C3CCCC3)[nH]c12 [Compound 36, N-([3,4-c]Indan)-2-cyclopentyl-1H-imidazo[4,5-c]quinolin-4-amine]	–
109 ± 3	96 ± 2	–	67	–	–	5	235 to 236	68%	56	c1ccc2c(c1)nc(Nc1ccc3cn[nH]c3c1)c1nc(C3CCCC3)[nH]c12 [Compound 37, N-(1H-indazol-6-yl)-2-cyclopentyl-1H-imidazo[4,5-c]quinolin-4-amine]	–
101 ± 13	109 ± 3	–	80	–	–	0.3	245 to 247	60%	59	COc1ccc(CNc2nc3ccccc3c3[nH]c(C4CCCC4)nc23)cc1 [Compound 38, N-(4-Methoxy-benzyl)-2-cyclopentyl-1H-imidazo[4,5-c]quinolin-4-amine]	–
126 ± 9	125 ± 2	–	89	–	–	10.1	260 to 261	74%	70	c1ccc2c(c1)nc(Nc1ccc3cc[nH]c3c1)c1nc(C3CCCC3)[nH]c12 [Compound 39, N-(1H-Indol-6-yl)-2-cyclopentyl-1H-imidazo[4,5-c]quinolin-4-amine]	–
145 ± 10	147 ± 8	–	86	–	–	-3.4	–	77%	28	c1ccc(CNc2nc3ccccc3c3[nH]c(C4CCCC4)nc23)cc1 [Compound 40, N-(Benzyl)-2-cyclopentyl-1H-imidazo[4,5-c]quinolin-4-amine]	–
154 ± 7	137 ± 4	–	84	–	–	-11.6	95 to 97	91%	52	c1ccc(CCNc2nc3ccccc3c3[nH]c(C4CCCC4)nc23)cc1 [Compound 41, N-(Phenylethyl)-2-cyclopentyl-1H-imidazo[4,5-c]quinolin-4-amine]	–
